The target in assay [1] is Homeodomain-interacting protein kinase 4 (Homo sapiens) (UniProt Q8NE63). Kind of assay: Inhibition of human HIPK4 assessed as residual activity at 10 uM using RRRFRPASPLRGPPK as substrate after 40 mins by [gamma-33ATP] radiometric assay relative to control.
The target in assay [2] is Proto-oncogene tyrosine-protein kinase receptor Ret (Homo sapiens) (UniProt P07949). Briefly: Inhibition of recombinant human Ret (658 to end residues) assessed as residual activity at 10 uM using KKKSPGEYVNIEFG as substrate incubated for 40 mins in presence of [gamma33P]ATP by scintillation counting based radiometry assay relative to control.
The target in assay [3] is Mitogen-activated protein kinase kinase kinase kinase 2 (Homo sapiens) (UniProt Q12851). Kind of assay: Inhibition of recombinant human GCK (1 to 473 residues) assessed as residual activity at 10 uM using myelin basic protein as substrate at 40 mins in presence of [gamma-33ATP] by scintillation counting based radiometry assay relative to control.
Assay [4] deals with Serine/threonine-protein kinase TAO1 (Homo sapiens) (UniProt Q7L7X3). Kind of assay: Inhibition of recombinant human TAO1 (1 to 327 residues) assessed as residual activity at 10 uM using myelin basic protein as substrate incubated for 40 mins in presence of [gamma33P]ATP by scintillation counting based radiometry assay relative to control.
The target of assay [5] is Aurora kinase C (Homo sapiens) (UniProt Q9UQB9). Briefly: Inhibition of recombinant human Aurora C (35 to end residues) assessed as residual activity at 10 uM using AKRRRLSSLRA as substrate incubated for 40 mins in presence of [gamma-33ATP] by scintillation counting based radiometry assay relative to control.
Assay [6] concerns the target Serine/threonine-protein kinase MAK (Homo sapiens) (UniProt P20794). Briefly: Inhibition of recombinant human MAK assessed as residual activity at 10 uM using RRRFRPASPLRGPPK as substrate after 120 mins in presence of [gamma-33ATP] by scintillation counting based radiometry assay relative to control.
For assay [7], the target named is Serine/threonine-protein kinase NLK (Homo sapiens) (UniProt Q9UBE8). Kind of assay: Inhibition of recombinant human NLK (121 to end residues) assessed as residual activity at 10 uM using protein as substrate measured after 40 mins in presence of [gamma33P]ATP by scintillation counting based radiometry assay relative to control.
Assay [8] has as its target CDK6/cyclin D3 (Homo sapiens) (UniProt P30281+Q00534). Briefly: Inhibition of recombinant full length human CDK6/cyclinD3 assessed as residual activity at 10 uM using histone H1 as substrate incubated for 40 mins in presence of [gamma-33ATP] by scintillation counting based radiometry assay relative to control. The class given is protein-complex assay.
Assay [9] deals with Serine/threonine-protein kinase 38-like (Homo sapiens) (UniProt Q9Y2H1). Briefly: Inhibition of recombinant human NDR2 (83 to end residues) assessed as residual activity at 10 uM using RSRSRSRSRSRSRSR as substrate measured after 40 mins in presence of [gamma33P]ATP by scintillation counting based radiometry assay relative to control.
Assay [10] concerns the target Tyrosine-protein kinase Lck (Homo sapiens) (UniProt P06239). Kind of assay: Inhibition of recombinant full length human LCK assessed as residual activity at 10 uM using KVEKIGEGTYGVV as substrate after 40 mins in presence of [gamma-33ATP] by scintillation counting based radiometry assay relative to control.
Assay [11] deals with Serine/threonine-protein kinase VRK2 (Homo sapiens) (UniProt Q86Y07). Kind of assay: Inhibition of recombinant human VRK2 (1 to 336 residues) assessed as residual activity at 10 uM using casein as substrate incubated for 40 mins in presence of [gamma33P]ATP by scintillation counting based radiometry assay relative to control.
Assay [12] addresses Myosin light chain kinase, smooth muscle (Homo sapiens) (UniProt Q15746). Kind of assay: Inhibition of recombinant human MLCK (1425 to 1771 residues) assessed as residual activity at 10 uM using […] incubated for 40 mins in presence of [gamma-33ATP by scintillation counting based radiometry assay relative to control.
The target in assay [13] is Receptor-interacting serine/threonine-protein kinase 2 (Homo sapiens) (UniProt O43353). Briefly: Inhibition of recombinant human RIPK2 (1 to 299 residues) assessed as residual activity at 10 uM using myelin basic protein as substrate incubated for 120 mins in presence of [gamma33P]ATP by scintillation counting based radiometry assay relative to control.
For assay [14], the system named is Fibroblast growth factor receptor 2 (Homo sapiens), P21802 [N549H]. Briefly: Inhibition of recombinant human FGFR2 N549H mutant (456 to 765 residues) assessed as residual activity at 10 uM using KKKSPGEYVNIEF as substrate at 40 mins in presence of [gamma-33ATP] by scintillation counting based radiometry assay relative to control.
Assay [15] deals with Serine/threonine-protein kinase pim-3 (Homo sapiens) (UniProt Q86V86). Kind of assay: Inhibition of recombinant human Pim3 (2 to end residues) assessed as residual activity at 10 uM using RSRHSSYPAG as substrate incubated for 40 mins in presence of [gamma33P]ATP by scintillation counting based radiometry assay relative to control.
The target in assay [16] is Insulin receptor (Homo sapiens) (UniProt P06213). Kind of assay: Inhibition of human IR activated (1005 to 1310 residues) assessed as residual activity at 10 uM using KKSRGDYMTMQIG as substrate after 40 mins by [gamma-33ATP] radiometric assay relative to control.
The target of assay [17] is Myotonin-protein kinase (Homo sapiens) (UniProt Q09013). Kind of assay: Inhibition of recombinant human DMPK (1 to 549 residues) assessed as residual activity at 10 uM using KKSRGDYMTMQIG as substrate at 40 mins in presence of [gamma-33ATP] by scintillation counting based radiometry assay relative to control.
For assay [18], the target named is Misshapen-like kinase 1 (Homo sapiens) (UniProt Q8N4C8). Briefly: Inhibition of recombinant human MINK (1 to 320 residues) assessed as residual activity at 10 uM using myelin basic protein as substrate incubated for 40 mins in presence of [gamma-33ATP by scintillation counting based radiometry assay relative to control.
The species named for the next assay is Homo sapiens. Kind of assay: Inhibition of recombinant human A-Raf Y301D/ Y302D mutant (273 to end residues) assessed as residual activity at 10 uM using myelin basic protein as substrate incubated for 40 mins in presence of [gamma-33ATP] by scintillation counting based radiometry assay relative to control.
The target in assay [19] is Protein kinase C theta type (Homo sapiens) (UniProt Q04759). Briefly: Inhibition of recombinant full length human PKCtheta assessed as residual activity at 10 uM using histone H1 as substrate incubated for 40 mins in presence of [gamma33P]ATP by scintillation counting based radiometry assay relative to control.

Structures are written as SMILES.

Fibroblast growth factor receptor 2 (Homo sapiens), P21802 [N549H], sequence (P21802 whole entry N549H, the tested form may be a part): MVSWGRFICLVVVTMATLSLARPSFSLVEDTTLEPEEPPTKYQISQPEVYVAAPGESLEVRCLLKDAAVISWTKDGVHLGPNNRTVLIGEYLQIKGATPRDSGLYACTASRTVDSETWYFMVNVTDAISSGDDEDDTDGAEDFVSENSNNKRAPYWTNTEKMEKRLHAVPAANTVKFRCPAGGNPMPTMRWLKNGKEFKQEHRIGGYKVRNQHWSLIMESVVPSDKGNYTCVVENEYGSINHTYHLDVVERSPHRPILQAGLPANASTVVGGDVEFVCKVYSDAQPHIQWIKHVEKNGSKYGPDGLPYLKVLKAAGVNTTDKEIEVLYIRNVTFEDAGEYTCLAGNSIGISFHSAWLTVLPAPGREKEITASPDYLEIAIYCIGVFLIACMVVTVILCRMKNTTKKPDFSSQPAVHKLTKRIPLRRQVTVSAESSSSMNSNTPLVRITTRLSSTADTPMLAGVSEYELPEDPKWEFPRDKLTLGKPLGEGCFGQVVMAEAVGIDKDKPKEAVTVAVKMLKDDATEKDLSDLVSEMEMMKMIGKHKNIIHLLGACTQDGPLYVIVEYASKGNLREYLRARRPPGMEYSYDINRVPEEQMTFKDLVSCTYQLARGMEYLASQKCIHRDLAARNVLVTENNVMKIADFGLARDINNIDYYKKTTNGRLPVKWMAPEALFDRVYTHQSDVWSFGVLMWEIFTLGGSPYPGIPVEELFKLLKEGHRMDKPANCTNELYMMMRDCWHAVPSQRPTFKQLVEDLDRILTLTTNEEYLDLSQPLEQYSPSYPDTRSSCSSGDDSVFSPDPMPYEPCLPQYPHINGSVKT
Serine/threonine-protein kinase VRK2 (Homo sapiens), sequence (Q86Y07 whole entry, the tested form may be a part): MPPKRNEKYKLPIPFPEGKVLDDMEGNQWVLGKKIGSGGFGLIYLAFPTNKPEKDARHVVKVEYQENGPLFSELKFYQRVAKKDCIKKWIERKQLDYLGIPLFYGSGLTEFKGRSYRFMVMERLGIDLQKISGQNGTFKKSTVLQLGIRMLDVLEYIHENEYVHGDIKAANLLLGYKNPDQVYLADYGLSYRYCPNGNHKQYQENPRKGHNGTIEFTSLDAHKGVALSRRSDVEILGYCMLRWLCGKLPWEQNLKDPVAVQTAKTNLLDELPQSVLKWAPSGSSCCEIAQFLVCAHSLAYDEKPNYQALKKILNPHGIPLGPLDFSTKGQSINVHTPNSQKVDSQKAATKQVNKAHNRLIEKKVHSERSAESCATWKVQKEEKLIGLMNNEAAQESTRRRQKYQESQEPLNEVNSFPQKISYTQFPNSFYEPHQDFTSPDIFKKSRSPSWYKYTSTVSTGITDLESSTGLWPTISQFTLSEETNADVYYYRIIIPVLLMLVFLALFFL
Serine/threonine-protein kinase MAK (Homo sapiens), sequence (P20794 whole entry): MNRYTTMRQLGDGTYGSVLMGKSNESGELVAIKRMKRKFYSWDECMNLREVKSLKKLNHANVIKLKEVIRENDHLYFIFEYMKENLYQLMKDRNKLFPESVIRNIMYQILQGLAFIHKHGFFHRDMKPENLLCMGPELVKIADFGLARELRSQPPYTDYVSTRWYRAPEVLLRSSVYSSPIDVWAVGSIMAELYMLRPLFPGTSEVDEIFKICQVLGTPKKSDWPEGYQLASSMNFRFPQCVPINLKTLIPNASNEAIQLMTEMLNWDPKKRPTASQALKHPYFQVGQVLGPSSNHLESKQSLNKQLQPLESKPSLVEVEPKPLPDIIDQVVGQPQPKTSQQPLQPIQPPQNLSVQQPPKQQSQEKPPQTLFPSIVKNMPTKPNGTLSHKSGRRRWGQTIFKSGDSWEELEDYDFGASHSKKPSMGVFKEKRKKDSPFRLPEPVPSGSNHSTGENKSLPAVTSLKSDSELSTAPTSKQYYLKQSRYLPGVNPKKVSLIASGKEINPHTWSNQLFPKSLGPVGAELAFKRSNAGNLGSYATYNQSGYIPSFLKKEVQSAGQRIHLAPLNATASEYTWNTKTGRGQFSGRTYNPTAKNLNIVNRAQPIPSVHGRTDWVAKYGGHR
Receptor-interacting serine/threonine-protein kinase 2 (Homo sapiens), sequence (O43353 whole entry, the tested form may be a part): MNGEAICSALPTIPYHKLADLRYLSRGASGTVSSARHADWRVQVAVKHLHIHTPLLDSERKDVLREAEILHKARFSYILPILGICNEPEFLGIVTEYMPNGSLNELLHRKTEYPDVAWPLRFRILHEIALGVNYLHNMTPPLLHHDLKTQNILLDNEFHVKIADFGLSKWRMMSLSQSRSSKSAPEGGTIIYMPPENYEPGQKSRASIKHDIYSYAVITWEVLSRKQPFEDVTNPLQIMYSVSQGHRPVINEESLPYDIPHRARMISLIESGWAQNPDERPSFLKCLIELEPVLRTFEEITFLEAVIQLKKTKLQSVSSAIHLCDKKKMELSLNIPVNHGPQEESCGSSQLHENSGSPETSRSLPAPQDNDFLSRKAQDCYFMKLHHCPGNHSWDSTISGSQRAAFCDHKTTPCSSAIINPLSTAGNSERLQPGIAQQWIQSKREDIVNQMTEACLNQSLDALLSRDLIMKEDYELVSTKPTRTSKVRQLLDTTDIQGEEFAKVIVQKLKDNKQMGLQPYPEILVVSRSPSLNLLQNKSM
Insulin receptor (Homo sapiens), sequence (P06213 28-758 limits assumed): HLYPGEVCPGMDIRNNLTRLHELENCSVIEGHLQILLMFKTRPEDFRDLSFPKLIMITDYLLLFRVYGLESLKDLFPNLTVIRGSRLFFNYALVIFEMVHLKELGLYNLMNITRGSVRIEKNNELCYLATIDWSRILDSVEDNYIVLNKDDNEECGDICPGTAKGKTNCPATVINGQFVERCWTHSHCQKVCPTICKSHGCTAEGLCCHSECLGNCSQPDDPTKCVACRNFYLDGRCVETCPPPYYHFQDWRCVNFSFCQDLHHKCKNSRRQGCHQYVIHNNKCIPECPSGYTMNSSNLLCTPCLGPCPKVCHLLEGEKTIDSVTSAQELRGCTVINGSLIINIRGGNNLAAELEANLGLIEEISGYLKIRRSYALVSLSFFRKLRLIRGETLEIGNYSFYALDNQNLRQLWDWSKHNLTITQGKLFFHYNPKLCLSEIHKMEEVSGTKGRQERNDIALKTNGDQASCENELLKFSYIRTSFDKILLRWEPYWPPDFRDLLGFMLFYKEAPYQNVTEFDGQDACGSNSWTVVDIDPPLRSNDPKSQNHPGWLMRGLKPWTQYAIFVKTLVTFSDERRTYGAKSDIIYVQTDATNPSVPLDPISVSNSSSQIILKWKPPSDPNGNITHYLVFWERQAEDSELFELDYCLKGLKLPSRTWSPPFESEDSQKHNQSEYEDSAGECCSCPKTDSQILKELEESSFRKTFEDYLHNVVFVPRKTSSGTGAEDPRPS
Insulin receptor (Homo sapiens), sequence (P06213 763-1382 limits assumed): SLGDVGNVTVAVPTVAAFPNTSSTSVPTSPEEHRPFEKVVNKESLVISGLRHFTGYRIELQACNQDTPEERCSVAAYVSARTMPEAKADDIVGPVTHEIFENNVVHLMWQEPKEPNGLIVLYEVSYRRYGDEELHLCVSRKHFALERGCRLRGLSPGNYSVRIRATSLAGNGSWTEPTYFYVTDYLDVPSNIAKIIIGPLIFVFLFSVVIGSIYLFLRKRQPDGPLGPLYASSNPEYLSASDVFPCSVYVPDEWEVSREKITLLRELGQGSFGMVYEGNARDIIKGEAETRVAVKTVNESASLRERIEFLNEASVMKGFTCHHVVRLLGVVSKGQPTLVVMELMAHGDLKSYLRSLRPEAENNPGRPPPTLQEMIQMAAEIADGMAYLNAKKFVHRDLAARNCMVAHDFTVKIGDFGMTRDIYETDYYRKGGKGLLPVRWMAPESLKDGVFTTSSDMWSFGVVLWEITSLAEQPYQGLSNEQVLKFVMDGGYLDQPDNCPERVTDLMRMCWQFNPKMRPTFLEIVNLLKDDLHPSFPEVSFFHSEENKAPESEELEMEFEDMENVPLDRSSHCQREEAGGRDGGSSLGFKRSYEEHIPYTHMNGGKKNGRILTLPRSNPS
Tyrosine-protein kinase Lck (Homo sapiens), sequence (P06239 2-509 limits assumed): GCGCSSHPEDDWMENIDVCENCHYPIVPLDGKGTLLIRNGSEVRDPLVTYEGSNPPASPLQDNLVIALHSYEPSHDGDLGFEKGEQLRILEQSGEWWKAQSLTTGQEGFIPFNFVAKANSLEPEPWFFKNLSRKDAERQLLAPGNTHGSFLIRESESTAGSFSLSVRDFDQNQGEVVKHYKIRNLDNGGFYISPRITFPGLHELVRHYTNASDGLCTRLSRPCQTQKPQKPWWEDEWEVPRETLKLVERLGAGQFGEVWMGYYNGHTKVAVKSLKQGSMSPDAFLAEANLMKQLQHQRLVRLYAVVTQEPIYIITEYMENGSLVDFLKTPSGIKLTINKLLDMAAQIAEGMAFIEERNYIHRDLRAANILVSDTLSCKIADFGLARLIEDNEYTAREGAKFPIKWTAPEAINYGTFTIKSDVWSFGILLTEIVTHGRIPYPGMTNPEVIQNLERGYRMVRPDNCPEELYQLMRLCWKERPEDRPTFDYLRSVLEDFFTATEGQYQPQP
Aurora kinase C (Homo sapiens), sequence (Q9UQB9 whole entry): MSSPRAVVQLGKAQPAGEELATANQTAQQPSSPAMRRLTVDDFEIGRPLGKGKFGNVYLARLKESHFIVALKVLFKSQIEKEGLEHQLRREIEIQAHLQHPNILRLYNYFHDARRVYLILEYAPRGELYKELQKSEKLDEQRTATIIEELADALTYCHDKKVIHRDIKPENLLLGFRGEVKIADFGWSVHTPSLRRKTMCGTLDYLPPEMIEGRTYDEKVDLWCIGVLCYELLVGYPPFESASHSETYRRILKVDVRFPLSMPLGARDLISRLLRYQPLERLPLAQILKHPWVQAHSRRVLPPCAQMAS

Take `C[C@@H](c1ccccc1)n1nnc2cnc3ccc(-c4cnc5[nH]ccc5c4)cc3c21`: the Activity in assay [1] worked out at 57%; in assay [2] it was 57%; in assay [3] it was 75%; in assay [4], 18%; in [5] it was 68%; in assay [6] it was 87%. In addition, the Activity in [7] came out at 43%; in [8] it was 92%; in assay [9], 89%; in assay [10], 6%; in assay [11], 80%; in assay [12] it was 61%. For the same compound, the Activity in assay [13] is 23%; in assay [14] it was 27%; in assay [15], 83%; in assay [16], 62%; in [17] it was 89%; in [18], 81%. Besides, the Activity in the assay listed under Homo sapiens amounted to 95%; in [19] it was 70%.

The values above are taken from ChEMBL document CHEMBL4334471, “Discovery of 1,8-disubstituted-[1,2,3]triazolo[4,5-c]quinoline derivatives as a new class of Hippo signaling pathway inhibitors” (Bioorg Med Chem Lett, 2019).
